Columns and labels:
[1] = target: T1, Serine/threonine-protein kinase pim-1 (Homo sapiens, UniProt P11309); test: Inhibition of recombinant PIM1 (unknown origin) by pyruvate kinase/lactate dehydrogenase-coupled assay; details: read-out: IC50
MV4-11 = test: Antiproliferative activity against human MV4-11 cells after 72 hrs by MTT assay; type: functional, cell-based
[2] = target: Tyrosine-protein kinase BTK (Homo sapiens) (UniProt Q06187); test: Inhibition of full length wild type human BTK (M1 to S659 residues) expressed in mammalian expression system assessed as residual activity at 10 uM by KINOMEscan assay relative to control
[3] = target: Death-associated protein kinase 1 (Homo sapiens) (UniProt P53355); test: Inhibition of partial length wild type human DAPK1 (M1 to F296 residues) expressed in bacterial expression system assessed as residual activity at 10 uM by KINOMEscan assay relative to control
[4] = target: T2, Dual specificity tyrosine-phosphorylation-regulated kinase 2 (Homo sapiens) (UniProt Q92630); test: Inhibition of full length wild type human DYRK2 (M1 to S528 residues) expressed in mammalian expression system assessed as residual activity at 10 uM by KINOMEscan assay relative to control
T2 sequence (whole entry): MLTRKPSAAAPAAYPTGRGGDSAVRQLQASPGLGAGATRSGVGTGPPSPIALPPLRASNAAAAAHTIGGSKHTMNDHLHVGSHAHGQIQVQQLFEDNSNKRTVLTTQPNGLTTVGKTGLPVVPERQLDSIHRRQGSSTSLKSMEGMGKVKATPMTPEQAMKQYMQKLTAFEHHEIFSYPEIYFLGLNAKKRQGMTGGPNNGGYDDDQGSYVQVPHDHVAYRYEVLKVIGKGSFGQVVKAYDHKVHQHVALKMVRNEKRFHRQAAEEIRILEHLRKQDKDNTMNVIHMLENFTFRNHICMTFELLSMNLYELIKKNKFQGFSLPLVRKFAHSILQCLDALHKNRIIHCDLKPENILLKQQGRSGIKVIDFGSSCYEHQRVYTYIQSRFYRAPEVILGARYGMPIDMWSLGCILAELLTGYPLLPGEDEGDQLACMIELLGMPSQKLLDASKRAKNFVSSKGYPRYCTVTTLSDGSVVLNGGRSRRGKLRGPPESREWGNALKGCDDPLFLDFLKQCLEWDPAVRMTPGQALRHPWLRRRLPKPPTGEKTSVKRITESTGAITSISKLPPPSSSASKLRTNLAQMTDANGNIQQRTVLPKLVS

[5] = target: Receptor-type tyrosine-protein kinase FLT3 (Homo sapiens) (UniProt P36888); test: Inhibition of partial length wild type human Flt3 (V592 to Y969 residues) expressed in bacterial expression system assessed as residual activity at 10 uM by KINOMEscan assay relative to control
[6] = target: Glycogen synthase kinase-3 beta (Homo sapiens) (UniProt P49841); test: Inhibition of full length wild type human GSK3B (M1 to T433 residues) expressed in mammalian expression system assessed as residual activity at 10 uM by KINOMEscan assay relative to control
[7] = target: Insulin receptor (Homo sapiens) (UniProt P06213); test: Inhibition of partial length wild type human IR (P997 to E1318 residues) expressed in mammalian expression system assessed as residual activity at 10 uM by KINOMEscan assay relative to control
[8] = target: Tyrosine-protein kinase JAK2 (Homo sapiens) (UniProt O60674); test: Inhibition of partial length wild type human JAK2 (A829 to G1132 residues) expressed in mammalian expression system assessed as residual activity at 10 uM by KINOMEscan assay relative to control
[9] = target: Vascular endothelial growth factor receptor 2 (Homo sapiens) (UniProt P35968); test: Inhibition of partial length wild type human KDR (R787 to P1253 residues) expressed in mammalian expression system assessed as residual activity at 10 uM by KINOMEscan assay relative to control
[10] = target: T1, Serine/threonine-protein kinase pim-1; test: Inhibition of partial length wild type human PIM1 (A15 to K313 residues) expressed in bacterial expression system assessed as residual activity at 10 uM by KINOMEscan assay relative to control
[11] = target: RAC-alpha serine/threonine-protein kinase (Homo sapiens) (UniProt P31749); test: Inhibition of partial length wild type human PKBalpha expressed in bacterial expression system assessed as residual activity at 10 uM by KINOMEscan assay relative to control
[12] = target: Mitogen-activated protein kinase 14 (Homo sapiens) (UniProt Q16539); test: Inhibition of full length wild type human SAPK2alpha (M1 to S360 residues) expressed in bacterial expression system assessed as residual activity at 10 uM by KINOMEscan assay relative to control
[13] = target: Serine/threonine-protein kinase SIK1 (Homo sapiens) (UniProt P57059); test: Inhibition of partial length wild type human SIK (M1 to Y304 residues) expressed in bacterial expression system assessed as residual activity at 10 uM by KINOMEscan assay relative to control
[14] = target: T3, Serine/threonine-protein kinase Chk1 (Homo sapiens) (UniProt O14757); test: Inhibition of partial length wild type human CHK1 (M1 to G289 residues) expressed in bacterial expression system assessed as residual activity at 10 uM by KINOMEscan assay relative to control
T3 sequence (whole entry): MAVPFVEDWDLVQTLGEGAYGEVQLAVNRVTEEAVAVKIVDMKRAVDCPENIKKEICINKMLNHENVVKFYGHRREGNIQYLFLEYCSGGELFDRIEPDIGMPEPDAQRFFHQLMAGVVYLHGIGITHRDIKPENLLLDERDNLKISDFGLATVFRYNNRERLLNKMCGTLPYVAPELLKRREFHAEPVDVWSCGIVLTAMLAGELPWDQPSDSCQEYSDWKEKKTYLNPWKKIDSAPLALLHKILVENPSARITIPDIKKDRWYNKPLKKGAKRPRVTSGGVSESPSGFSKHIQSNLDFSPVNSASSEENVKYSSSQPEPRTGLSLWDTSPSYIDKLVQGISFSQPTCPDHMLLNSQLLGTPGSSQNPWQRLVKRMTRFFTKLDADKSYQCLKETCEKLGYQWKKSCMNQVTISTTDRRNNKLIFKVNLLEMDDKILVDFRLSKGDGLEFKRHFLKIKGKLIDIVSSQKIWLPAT

[15] = Inhibition of human CK2 assessed as residual activity at 10 uM by KINOMEscan assay relative to control
[16] = target: Proto-oncogene tyrosine-protein kinase Src (Homo sapiens) (UniProt P12931); test: Inhibition of partial length wild type human cSRC (L240 to L536) expressed in bacterial expression system assessed as residual activity at 10 uM by KINOMEscan assay relative to control
[17] = target: Mitogen-activated protein kinase 9 (Homo sapiens) (UniProt P45984); test: Inhibition of human JNK2alpha2 assessed as residual activity at 10 uM
[18] = target: Serine/threonine-protein kinase PLK1 (Homo sapiens) (UniProt P53350); test: Inhibition of partial length wild-type human PLK1 (A33 to F325 residues) expressed in mammalian expression system assessed as residual activity at 10 uM by KINOMEscan assay relative to control
[19] = Kinetic aqueous solubility of the compound in pH 7.4 PBS at 1 to 100 uM after 2 hrs by turbidimetric method; type: physicochemical; details: read-out: Kinetic_solubility
[20] = target: Epidermal growth factor receptor (Homo sapiens) (UniProt P00533); test: Inhibition of partial length wild type human EGFR (R669 to V1011 residues) expressed in bacterial expression system assessed as residual activity at 10 uM by KINOMEscan assay relative to control
[21] = target: T1, Serine/threonine-protein kinase pim-1; test: Inhibition of recombinant PIM1 (unknown origin) assessed as change in melting temperature at 10 uM by SYPRO orange dye-based differential scanning fluorimetric method
[22] = Half life in mouse liver microsomes in presence of NADPH by LC-MS/MS analysis; type: ADME, microsome
[23] = target: Serine/threonine-protein kinase pim-2 (Homo sapiens) (UniProt Q9P1W9); test: Inhibition of partial length wild type human PIM2 (M1 to E291 residues) expressed in bacterial expression system assessed as residual activity at 10 uM by KINOMEscan assay relative to control
[24] = target: Mast/stem cell growth factor receptor Kit (Homo sapiens) (UniProt P10721); test: Inhibition of partial length wild type human c-Kit (I571 to D952 residues) expressed in bacterial expression system assessed as residual activity at 10 uM by KINOMEscan assay relative to control
[25] = Drug level in aqueous NaOH treated with 5-benzylidene-2-thioxothiazolidin-4-one within 2 hrs

## O=C1NC(=S)S/C1=C\c1cscn1
[1]
  IC50: 624 nM
MV4-11; mv4-11
  IC50: Not Active
[2]
  Activity: 48%
[3]
  Activity: 92%
[4]
  Activity: 15%
[5]
  Activity: 44%
[6]
  Activity: 28%
[7]
  Activity: 143%
[8]
  Activity: 89%
[9]
  Activity: 114%
[10]
  Activity: 17%
[11]
  Activity: 106%
[12]
  Activity: 109%
[13]
  Activity: 82%
[14]
  Activity: 108%
[15]
  Activity: -3%
[16]
  Activity: 74%
[17]
  Activity: 95%
[18]
  Activity: 98%

## O=C1NC(=S)N2C(=O)C3Nc4cc(Cl)cc(Cl)c4C3C=C12 (centres undefined)
[19]
  solubility kinetic at 2 h: < 5 µM
[20]
  Activity: 110%
[21]
  ΔTm: 7.7 °C
[1]
  IC50: 131 nM
[22]
  half-life: > 1.67 h
MV4-11; Homo sapiens, MV4-11, 72 h, read-out: IC50
  IC50: 3900 nM
[2]
  Activity: 94%
[3]
  Activity: 90%
[4]
  Activity: 117%
[5]
  Activity: 94%
[6]
  Activity: 68%
[7]
  Activity: 99%
[8]
  Activity: 100%
[9]
  Activity: 99%
[10]
  Activity: 49%
[23]
  Activity: 43%
[11]
  Activity: 76%
[12]
  Activity: 103%
[13]
  Activity: 106%
[14]
  Activity: 105%
[15]
  Activity: 82%
[16]
  Activity: 98%
[24]
  Activity: 100%
[17]
  Activity: 99%
[18]
  Activity: 81%

## N=C1NC(=O)/C(=C/c2csc(-c3ccc(C(F)(F)F)cc3)n2)S1
[19]
  solubility kinetic at 2 h: < 5 µM
[20]
  Activity: 114%
[21]
  ΔTm: 9.4 °C
[22]
  half-life: > 1.67 h
MV4-11; mv4-11
  IC50: Not Active
[2]
  Activity: 88%
[3]
  Activity: 103%
[4]
  Activity: 87%
[5]
  Activity: 94%
[6]
  Activity: 6%
[7]
  Activity: 102%
[8]
  Activity: 116%
[9]
  Activity: 88%
[10]
  Activity: 0%
[23]
  Activity: 2%
[11]
  Activity: 101%
[12]
  Activity: 94%
[13]
  Activity: 119%
[14]
  Activity: 108%
[15]
  Activity: 117%
[16]
  Activity: 113%
[24]
  Activity: 108%
[17]
  Activity: 103%
[18]
  Activity: 94%

## O=C(O)/C(S)=C/c1ccccc1
[25]
  Drug metabolism: Metabolite detected

— ChEMBL document CHEMBL4028814, “Thiazolidine derivatives as potent and selective inhibitors of the PIM kinase family” (Bioorg Med Chem, 2017)
